Results from patent US11932653B2, “Lycorine derivative, and pharmaceutical composition and use thereof” (priority 2018, dated 2024).

Columns and labels:
[1] = Cytotoxicity in uninfected RD cells (CC50, MTT); format: cell-based; conditions: human, Table 1
Experimental: (§1) RD cells were seeded into a 96-well plate (10^4 cells/well), and infected with 100× TCID50 of EV71 viruses. After 2 hrs, various concentrations of the derivative were added. […] Uninfected cells were also given various concentrations of the derivative to determine the CC50.
(§2) RD cells were seeded into a 96-well plate (10^4 cells/well), and infected with 100×TCID50 of CAV16 viruses. After 2 hrs, various concentrations of the derivative were added. […] Uninfected cells were also given various concentrations of the derivative to determine the CC50.

EV71 = assay: In-vitro experiment against EV71 virus (RD cells, MTT); format: cell-based; conditions: for EC50: Enterovirus A, RD cells infected with 100x TCID50 EV71, compound added after 2 hrs, MTT at 48 hrs; for SI: selectivity index, EV71, RD cells
Experimental: as §1

CAV16 = assay: In-vitro experiment against Coxsackievirus A16 (CAV16) (RD cells, MTT); format: cell-based, Coxsackievirus Virus A16 (CAV16); conditions: for EC50: Coxsackievirus, RD cells infected with 100x TCID50 CAV16, compound added after 2 hrs, MTT at 48 hrs; for SI: selectivity index, CAV16, RD cells
Experimental: as §2

[2] = Toxicity test in ICR mice after single administration by intraperitoneal injection; format: in vivo; conditions: for minimum lethal dose: 10-day-old ICR mice, single intraperitoneal injection, observed 14 days; for MTD at 14 days: both sexes, ICR; for MTD at 14 days / Weight on day 1 after administration: mouse, in vivo, ip
Experimental: 22 10-day-old ICR mice were randomly assigned to 17 groups, and given Compound 6 once by intraperitoneal injection at a dosage of 0.625, 1.25, 2.5, 5, 10, 20, 40, 80, 100, 160, 200, 250, 300, 470, 500, 1000, or 2000 mg/kg. 1-2 animals were included in each group, and the male and female mice were administered alternately. […] The dead animals are necropsied and the changes in main organs were observed. On day 1 after administration, the weight of the animals in the 160 mg/kg group is decreases by 0.3 g, and the weight of the animals in the 0.625, 1.25, 2.5, 5, 10, 20, 40, 80, 100 mg/kg group is increased, compared to the day of administration. Under the conditions in this experiment, ICR mice were given Compound 6 once by intraperitoneal injection. The minimum lethal dose was 200 mg/kg and the maximum tolerated dose was 160 mg/kg.
24 10-day-old ICR mice were randomly assigned to 19 groups, and given Compound 6 once by intraperitoneal injection at a dosage of 0.625, 1.25, 2.5, 5, 10, 20, 40, 60, 80, 100, 120, 136, 160, 270, 320, 500, 690, 1000, or 2000 mg/kg. 1-2 animals were included in each group, and the male and female mice were administered alternately. […] The dead animals are necropsied and the changes in main organs were observed. […] Under the conditions in this experiment, ICR mice were given Compound 20 once by intraperitoneal injection.

[3] = tested on: Salmonella typhimurium TA100; assay: Test of reverse mutation in histidine-deficient Salmonella typhimurium, strain TA100; format: cell-based; conditions: for Number of colonies TA100(+S9): solvent control 170.7 ± 10.9
Experimental: (§3) The mutagenic effect of Compound 6 on the strains TA100 and TA102 was detected by determining the reverse mutation in histidine-deficient Salmonella typhimurium by pre-loaded culture dish method. The dosage of Compound 6 is 8, 40, 200, 1000, or 5000 μg/dish under activated and non-activated conditions, and the mutagenic effects on TA100 and TA102 were tested.

[4] = tested on: Salmonella typhimurium TA102; assay: Test of reverse mutation in histidine-deficient Salmonella typhimurium, strain TA102; format: cell-based; conditions: for Number of colonies TA102(−S9): solvent control 225.0 ± 7.5; for Number of colonies TA102(+S9): solvent control 236.5 ± 5.0
Experimental: as §3

[5] = 8-5000 μg/dish, activated and non-activated conditions

O=C(CSc1ccccc1)OC1C(O)C=C2CCN3Cc4cc5c(cc4C1C23)OCO5 (stereo not drawn) [Compound 2, 1-phenylthioacetyl-lycorine]
CC50 at 48 h [1]: 114000 nM
EC50 (EV71): 1650 nM
SI (EV71): 69.35
EC50 (CAV16): 570 nM
SI (CAV16): 200.73

O=C(COc1ccc(Cl)cc1)OC1C(O)C=C2CCN3Cc4cc5c(cc4C1C23)OCO5 (stereo not drawn) [Compound 3, 1-(4-chloro-phenoxyacetyl)-lycorine]
CC50 at 48 h [1]: 154000 nM
EC50 (EV71): 1280 nM
SI (EV71): 139.85

O=C(CCCOc1ccccc1)OC1C(O)C=C2CCN3Cc4cc5c(cc4C1C23)OCO5 (stereo not drawn) [Compound 4, 1-(4-phenoxybutyryl)-lycorine]
CC50 at 48 h [1]: 150000 nM
EC50 (EV71): 1760 nM
SI (EV71): 84.84

O=C(CCOc1ccccc1)OC1C(O)C=C2CCN3Cc4cc5c(cc4C1C23)OCO5 (stereo not drawn) [Compound 5, 1-(3-phenoxypropionyl)-lycorine]
CC50 at 48 h [1]: 134000 nM
EC50 (EV71): 1450 nM
SI (EV71): 92.43

O=C(COc1ccc(F)cc1)OC1C(O)C=C2CCN3Cc4cc5c(cc4C1C23)OCO5 (stereo not drawn) [Compound 6, 1-(4-fluoro-phenoxyacetyl)-lycorine]
minimum lethal dose [2]: 200 mg/kg
MTD at 14 days [2]: 160 mg/kg
Weight on day 1 after administration ([2]; 0.625 mg/kg): 7.3
Weight on day 1 after administration ([2]; 5 mg/kg): 6.9
Weight on day 1 after administration ([2]; 10 mg/kg): 6.5
Weight on day 1 after administration ([2]; 20 mg/kg): 7.5
Weight on day 1 after administration ([2]; 40 mg/kg): 7.7
Weight on day 1 after administration ([2]; 80 mg/kg): 7.3
Weight on day 1 after administration ([2]; 100 mg/kg): 7.3
Weight on day 1 after administration ([2]; 160 mg/kg): 6.3
Number of colonies TA100(−S9) ([3]; 8 μg/dish, solvent control 165.3 ± 10.7): 152.7 ± 9.4
Number of colonies TA100(+S9) ([3]; 8 μg/dish): 159.3 ± 11.3
Number of colonies TA100(−S9) ([3]; 40 μg/dish, solvent control 165.3 ± 10.7): 141.8 ± 5.9
Number of colonies TA100(+S9) ([3]; 40 μg/dish): 158.7 ± 10.7
Number of colonies TA100(−S9) ([3]; 200 μg/dish, solvent control 165.3 ± 10.7): 152.7 ± 9.5
Number of colonies TA100(+S9) ([3]; 200 μg/dish): 158.5 ± 11.5
Number of colonies TA100(−S9) ([3]; 1000 μg/dish, solvent control 165.3 ± 10.7): 113.0 ± 14.2
Number of colonies TA100(+S9) ([3]; 1000 μg/dish): 127.7 ± 10.1
Number of colonies TA100(−S9) ([3]; 5000 μg/dish, solvent control 165.3 ± 10.7): 110.5 ± 7.8
Number of colonies TA100(+S9) ([3]; 5000 μg/dish): 114.7 ± 3.8
mutagenic effect on TA100 [3, 5]: negative
Number of colonies TA102(−S9) ([4]; 8 μg/dish): 223.0 ± 9.1
Number of colonies TA102(+S9) ([4]; 8 μg/dish): 235.0 ± 9.6
Number of colonies TA102(−S9) ([4]; 40 μg/dish): 205.0 ± 14.6
Number of colonies TA102(+S9) ([4]; 40 μg/dish): 222.5 ± 9.3
Number of colonies TA102(−S9) ([4]; 200 μg/dish): 192.8 ± 18.6
Number of colonies TA102(+S9) ([4]; 200 μg/dish): 208.3 ± 6.8
Number of colonies TA102(−S9) ([4]; 1000 μg/dish): 182.3 ± 10.3
Number of colonies TA102(+S9) ([4]; 1000 μg/dish): 195.2 ± 8.6
Number of colonies TA102(−S9) ([4]; 5000 μg/dish): 147.2 ± 20.3
Number of colonies TA102(+S9) ([4]; 5000 μg/dish): 180.7 ± 11.7
mutagenic effect on TA102 [4, 5]: negative
CC50 at 48 h [1]: 131000 nM
EC50 (EV71): 1270 nM
SI (EV71): 103.30

O=C(COc1ccc(Br)cc1)OC1C(O)C=C2CCN3Cc4cc5c(cc4C1C23)OCO5 (stereo not drawn) [Compound 7, 1-(4-bromo-phenoxyacetyl)-lycorine]
CC50 at 48 h [1]: 103000 nM
EC50 (EV71): 1470 nM
SI (EV71): 70.36

O=C(COc1ccc([N+](=O)[O-])cc1)OC1C(O)C=C2CCN3Cc4cc5c(cc4C1C23)OCO5 (stereo not drawn) [Compound 8, 1-(4-nitro-phenoxyacetyl)-lycorine]
CC50 at 48 h [1]: 105000 nM
EC50 (EV71): 1230 nM
SI (EV71): 85.67

O=C(COc1ccc(I)cc1)OC1C(O)C=C2CCN3Cc4cc5c(cc4C1C23)OCO5 (stereo not drawn) [Compound 9, 1-(4-iodo-phenoxyacetyl)-lycorine]
CC50 at 48 h [1]: 99600 nM
EC50 (EV71): 1840 nM
SI (EV71): 54.15

CC(C)c1ccc(OCC(=O)OC2C(O)C=C3CCN4Cc5cc6c(cc5C2C34)OCO6)cc1 (stereo not drawn) [Compound 10, 1-(4-isopropyl-phenoxyacetyl)-lycorine]
CC50 at 48 h [1]: 101000 nM
EC50 (EV71): 1670 nM
SI (EV71): 60.63

O=C(CSc1ccc(Cl)cc1)OC1C(O)C=C2CCN3Cc4cc5c(cc4C1C23)OCO5 (stereo not drawn) [Compound 11, 1-(4-chloro-phenylthioacetyl)-lycorine]
CC50 at 48 h [1]: 131000 nM
EC50 (EV71): 1460 nM
SI (EV71): 89.40

Cc1ccc(OCC(=O)OC2C(O)C=C3CCN4Cc5cc6c(cc5C2C34)OCO6)cc1 (stereo not drawn) [Compound 12, 1-(4-methylphenoxyacetyl)-lycorine]
CC50 at 48 h [1]: 134000 nM
EC50 (EV71): 1530 nM
SI (EV71): 87.73

Cc1ccc(OCC(=O)OC2C(O)C=C3CCN4Cc5cc6c(cc5C2C34)OCO6)c(C)c1 (stereo not drawn) [Compound 13, 1-(2,4-dimethyl-phenoxyacetyl)-lycorine]
CC50 at 48 h [1]: 149000 nM
EC50 (EV71): 1560 nM
SI (EV71): 95.33

O=C(COc1ccccc1Cl)OC1C(O)C=C2CCN3Cc4cc5c(cc4C1C23)OCO5 (stereo not drawn) [Compound 14, 1-(2-chloro-phenoxyacetyl)-lycorine]
CC50 at 48 h [1]: 145000 nM
EC50 (EV71): 1630 nM
SI (EV71): 89.10

O=C(COc1cccc(Cl)c1)OC1C(O)C=C2CCN3Cc4cc5c(cc4C1C23)OCO5 (stereo not drawn) [Compound 15, 1-(3-chloro-phenoxyacetyl)-lycorine]
CC50 at 48 h [1]: 152000 nM
EC50 (EV71): 1730 nM
SI (EV71): 87.61

O=C(COc1ccc(Cl)cc1Cl)OC1C(O)C=C2CCN3Cc4cc5c(cc4C1C23)OCO5 (stereo not drawn) [Compound 16, 1-(2,4-dichloro-phenoxyacetyl)-lycorine]
CC50 at 48 h [1]: 130000 nM
EC50 (EV71): 1710 nM
SI (EV71): 75.94

O=C(COc1ccccc1[N+](=O)[O-])OC1C(O)C=C2CCN3Cc4cc5c(cc4C1C23)OCO5 (stereo not drawn) [Compound 17]
CC50 at 48 h [1]: 156000 nM
EC50 (EV71): 1710 nM
SI (EV71): 91.37

COc1ccc(OCC(=O)OC2C(O)C=C3CCN4Cc5cc6c(cc5C2C34)OCO6)cc1 (stereo not drawn) [Compound 18, 1-(4-methoxy-phenoxyacetyl)-lycorine]
CC50 at 48 h [1]: 161000 nM
EC50 (EV71): 1650 nM
SI (EV71): 97.65

O=C(COc1ccc2ccccc2c1)OC1C(O)C=C2CCN3Cc4cc5c(cc4C1C23)OCO5 (stereo not drawn) [Compound 19, 1-(2-naphthyl-phenoxyacetyl)-lycorine]
CC50 at 48 h [1]: 163000 nM
EC50 (EV71): 1970 nM
SI (EV71): 82.94

O=C(CSc1ccc(F)cc1)OC1C(O)C=C2CCN3Cc4cc5c(cc4C1C23)OCO5 (stereo not drawn) [Compound 20, 1-(4-fluoro-phenylthioacetyl)-lycorine]
minimum lethal dose [2]: 160 mg/kg
MTD at 14 days [2]: 136 mg/kg
Weight on day 1 after administration ([2]; 0.625 mg/kg): 5.2
Weight on day 1 after administration ([2]; 1.25 mg/kg): 6.6
Weight on day 1 after administration ([2]; 5 mg/kg): 6.4
Weight on day 1 after administration ([2]; 10 mg/kg): 6.5
Weight on day 1 after administration ([2]; 20 mg/kg): 5.9
Weight on day 1 after administration ([2]; 40 mg/kg): 6.8
Weight on day 1 after administration ([2]; 60 mg/kg): 7
Weight on day 1 after administration ([2]; 100 mg/kg): 6.8
Weight on day 1 after administration ([2]; 136 mg/kg): 6.7

O=C(CCc1ccccc1)OC1C(O)C=C2CCN3Cc4cc5c(cc4C1C23)OCO5 (stereo not drawn) [Compound 23, 1-(3-phenylpropionyl)-lycorine]
CC50 at 48 h [1]: 129000 nM
EC50 (EV71): 1730 nM
SI (EV71): 74.28

O[C@H]1[C@H]2c3cc4c(cc3CN3CCC(=C[C@@H]1O)[C@H]23)OCO4 [Lycorine]
CC50 at 48 h [1]: 105000 nM
EC50 (EV71): 2260 nM
SI (EV71): 46.24
EC50 (CAV16): 1570 nM
SI (CAV16): 66.57

[N-]=[N+]=[N-].[Na+] [NaN3, reference compound]
Number of colonies TA100(−S9) ([3]; 1.5 μg/dish, positive control): >1000
